Entries after “also recorded” stand apart in the source; their conditions may differ.
Columns and labels:
[1] = target: T1, DDB1ΔB-DCAF15 and BodipyFL-RBM39RRM2-G268V (Homo sapiens, UniProt Q14498+Q66K64, G268V); assay: TR-FRET recruitment assay with the RBM39RRM2 G268V mutant: titration of E7820; format: binding; details: BodipyFL-RBM39RRM2-G268V 200 nM, E7820 0.002-33 μM
T1 construct: RBM39RRM2 (245-332), and RBM23RRM2 (263-341); made in house; host or cells: Trichoplusia ni High Five insect cells (baculovirus)
Procedure: (§1) Titrations of compounds to induce DCAF15-RBM39 or DCAF15-RBM23 complex were carried out by mixing 200 nM biotinylated Strep II Avi-tagged DCAF15, 200 nM BodipyFL-labeled RBM39 or RBM23 variants, and 2 nM terbium-coupled streptavidin (Invitrogen™) in an assay buffer containing 50 mM Tris pH 8.0, 200 mM NaCl, 0.1% Pluronic F-68 solution (Sigma®), and 0.5% BSA (w/v). Full-length human DCAF15 was used in all TR-FRET assays. After dispensing the assay mixture, increasing concentrations of compounds were dispensed in a 384-well microplate (Corning, 4514) using a D300e Digital Dispenser (HP) normalized to 2% DMSO. Before TR-FRET measurements were conducted, the reactions were incubated for 15 min at room temperature. After excitation of terbium fluorescence at 337 nm, emission at 490 nm (terbium) and 520 nm (BodipyFL) were recorded with a 70 μs delay over 600 μs to reduce background fluorescence, and the reaction was followed over 60 cycles of each data point using a PHERAstar® FS microplate reader (BMG Labtech). The TR-FRET signal of each data point was extracted by calculating the 520/490 nm ratio. The half-maximal effective concentration EC50 values calculated using [Agonist] vs response (three parameters) equation in GraphPad Prism® 7.

[2] = target: T2, DDB1ΔB-DCAF15split and BodipyFL-RBM39RRM2 (Homo sapiens, UniProt Q14498+Q66K64); assay: TR-FRET recruitment assay with DCAF15split: titration of E7820; format: binding; details: E7820 0.002-33 μM, proteins at 200 nM
T2 construct: DCAF15 NTD (30-264), DCAF15 CTD (383-600); RBM39RRM2 (245-332), and RBM23RRM2 (263-341); Strep II Avi (N); made in house; host or cells: Trichoplusia ni High Five insect cells (baculovirus)

Kelly cells = assay: TMT quantification mass spectrometry proteomics (degradome of E7820); format: cell-based; details: E7820 10 μM, 5 h
Procedure: Treated Kelly cells were washed in PBS (Corning VWR, Radnor PA, USA) and collected at 3000 g centrifugation. Sample preparation and LC-MS analysis for whole proteome identification of novel E7820-dependent substrates was performed as described previously (Donovan et al., Elife 7:38430 (2018)).

RBM39 in HEK293T cells = target: T3, RBM39 in HEK293T cells (Homo sapiens, UniProt Q14498+Q66K64); assay: Cellular degradation of endogenous RBM39, western blot; format: cell-based; details: 500 nM E7820, HEK293T, 6 h
T3 construct: cellular degradation of endogenous RBM39; endogenous in cells; host or cells: HEK293T
Procedure: FIG. 7A-FIG. 7G are a series of cartoon representations, graphs, and structures depicting the biochemical characterization of DCAF15 binding to aryl-sulfonamides and RBM39RRM2. FIG. 7A is a schematic representation of TR-FRET-based DCAF15-RBM39 dimerization assay. FIG. 7B is a graph of TR-FRET for the titration of BodipyFL-RBM39RRM2 (0.02-20 μM) to DDB1ΔB-DCAF15biotin at 200 nM in the absence (DMSO) or presence of aryl-sulfonamides at 50 μM. Data is plotted as means±s.d. from three independent replicates (n=3). […] FIG. 7D is a schematic representation of TR-FRET-based DCAF15 binding assay. Compound 4 is titrated to the DDB1ΔB-DCAF15biotin, and the probe is displaced by competitor compounds. FIG. 7E is the chemical structure of BodipyFL-E7820 (4). […] Data is plotted as means±s.d. from three independent replicates (n=3). FIG. 7G is an immunoblot showing cellular degradation of endogenous RBM39. […] Shown is the uncropped blot with molecular size markers. The positions of RBM39 and GAPDH are indicated, and the asterisk marks a non-specific band. Quantitation of RBM39 and GAPDH bands was performed with the LI-COR imaging system, and % RBM39 is calculated as [RBM39 intensity/GAPDH intensity].

[3] = test system: DDB1ΔB-DCAF15biotin-DDA1 / RBM39RRM2; assay: TR-FRET titration of BodipyFL-RBM39RRM2 to the DDA1-containing complex with E7820; format: binding, human; details: with versus without DDA1
Procedure: (§2) Titrations of BodipyFL-RBM39 were carried out by mixing 400 nM biotinylated Strep II Avi-tagged DCAF15 variants, 100 μM compounds or equivalent volume of DMSO, and 4 nM terbium-coupled streptavidin in the same assay buffer. After dispensing the assay mixture, increasing concentration of BodipyFL-RBM39 was added to the compound-bound DCAF15 in a 1:1 volume ratio and incubated for 15 min at room temperature. The 520/490 nm ratios were plotted to calculate the Kd values estimated using One site-Specific binding equation in GraphPad Prism® 7.

RBM39RRM2-biotin = target: T4, RBM39RRM2-biotin (Homo sapiens, UniProt Q14498); assay: TR-FRET titration of BodipyFL-E7820 probe to RBM39RRM2-biotin; format: binding; details: RBM39RRM2-biotin alone
T4 construct: RBM39RRM2 (245-332), and RBM23RRM2 (263-341); made in house; host or cells: Trichoplusia ni High Five insect cells (baculovirus)
T4 sequence (Q14498 245-332): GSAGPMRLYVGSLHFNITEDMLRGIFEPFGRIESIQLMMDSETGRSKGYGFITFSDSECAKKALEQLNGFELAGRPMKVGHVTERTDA

DDB1ΔB-DCAF15biotin-DDA1 = assay: TR-FRET titration of BodipyFL-E7820 probe to the DDA1-containing complex; format: binding, human; details: with versus without DDA1
Procedure: Titrations of BodipyFL-E7820 (4) were carried out by mixing 200 nM biotinylated Strep II Avi-tagged DCAF15 variants or equivalent volume of the assay buffer, 2 nM terbium-coupled streptavidin in the same assay buffer. After dispensing the assay mixture, increasing concentration of BodipyFL-E7820 (4) was dispensed in the 384-well plate using D300e normalized to 2% DMSO, and then incubated for 15 min at room temperature. The 520/490 nm ratios from the sample with DCAF15 was subtracted by the ratios from the sample without DCAF15, and the subtracted values were plotted to calculate the Kd values estimated using One site-Specific binding equation in GraphPad Prism® 7. All TR-FRET results are plotted as means±s.d. from three independent replicates (n=3) unless otherwise indicated.

[4] = test system: degron tag-eGFP fusion protein in HEK293T cells; assay: Compound-dependent degradation of degron-eGFP fusion, eGFP/mCherry ratio; format: cell-based; details: 20-hour treatment
Description: To test compound-dependent degradation of the designed degron tags, a fusion protein of the tags and enhanced green fluorescence protein (eGFP) was stably expressed in HEK293T cells using a lentiviral vector. As an internal control, the cells also expressed an untagged mCherry protein downstream of the same promoter as degron-eGFP separated by an internal ribosomal entry site. […] A lower value of eGFP/mCherry at the same compound concentration indicates a higher rate of degradation. Designed degrons have higher degradation at low doses of aryl-sulfonamides and also lower IC50 values.

[5] = target: T5, DDB1ΔB-DCAF15biotin and BodipyFL-RBM39RRM2 (Homo sapiens, UniProt Q14498+Q66K64); assay: TR-FRET RBM39RRM2 recruitment assay: titration of compound; format: binding; details: BodipyFL-RBM39RRM2-WT 200 nM, DCAF15 200 nM; read-out: EC50 of DCAF15-RBM39RRM2 complex formation
T5 construct: Full-length human DCAF15 was used in all TR-FRET assays; RBM39RRM2 (245-332), and RBM23RRM2 (263-341); made in house; host or cells: Trichoplusia ni High Five insect cells (baculovirus)
Procedure: as §1

DDB1ΔB-DCAF15biotin = target: T6, DDB1ΔB-DCAF15biotin (Homo sapiens, UniProt Q66K64); assay: TR-FRET competition assay: displacement of BodipyFL-E7820 by aryl-sulfonamides; format: binding; details: for DCAF15 binding relative to E7820: competitive binding assay
T6 construct: Full-length human DCAF15 was used in all TR-FRET assays; made in house; host or cells: Trichoplusia ni High Five insect cells (baculovirus)
Description: The 520/490 nm ratios from the sample with DCAF15 was subtracted by the ratios from the sample without DCAF15, and the subtracted values were plotted to calculate the Kd values estimated using One site-Specific binding equation in GraphPad Prism® 7. All TR-FRET results are plotted as means±s.d. from three independent replicates (n=3) unless otherwise indicated.

[6] = target: T7, DDB1ΔB-DCAF15biotin / RBM39RRM2 (Homo sapiens, UniProt Q14498+Q66K64); assay: TR-FRET DCAF15-RBM39 dimerization assay: titration of BodipyFL-RBM39RRM2 to DDB1ΔB-DCAF15biotin with aryl-sulfonamide; format: binding; details: compound at 50 μM; DDB1ΔB-DCAF15biotin without DDA1; read-out: KD^app of RBM39RRM2 for DDB1ΔB-DCAF15 in the presence of compound
T7 construct: Full-length human DCAF15 was used in all TR-FRET assays; RBM39RRM2 (245-332), and RBM23RRM2 (263-341); made in house; host or cells: Trichoplusia ni High Five insect cells (baculovirus)
Procedure: Time-Resolved Fluorescence Resonance Energy Transfer (TR-FRET)
as §2

Compound	RBM39RRM2 recruitment to DCAF15 with Gly268Val mutation [1]	DCAF15-RBM39 dimerization, DCAF15split versus full length DCAF15 [2]	Proteins degraded out of ~11,000 proteins detected (Kelly cells)	Degradation of RBM39 in cells (RBM39 in HEK293T cells)	Strengthening of apparent affinity to RBM39RRM2 by DDA1 [3] [fold]	Binding to RBM39RRM2 (RBM39RRM2-biotin)	Effect of DDA1 on the affinity of E7820 to DCAF15 (DDB1ΔB-DCAF15biotin-DDA1)	Degradation of designed degron tag-eGFP (eGFP/mCherry ratio) [4]	EC50 [5] [µM]	Ki (DDB1ΔB-DCAF15biotin; DDB1ΔB-DCAF15biotin 200 nM, BodipyFL-E7820 5 μM, aryl-sulfonamides 0.002-100 μM, read-out: Ki for DCAF15) [µM]	DCAF15 binding relative to E7820 (DDB1ΔB-DCAF15biotin)	Kd [6] [µM]
Cc1ccc(NS(=O)(=O)c2cccc(C#N)c2)c2[nH]cc(C#N)c12 [E7820]	completely abrogated	equivalent binding	only RBM23 to be degraded in addition to RBM39	potently degraded	~3	not with RBM39	not altered	–	–	–	–	–
NS(=O)(=O)c1ccc(S(=O)(=O)Nc2cccc3c(Cl)c[nH]c23)cc1 [indisulam]	–	–	–	–	–	–	–	dose-dependent degradation	3.2	> 50	significant loss of DCAF15 binding; also recorded: significant loss in affinity for DCAF15	–
O=C(NS(=O)(=O)c1ccc(Br)s1)c1ccc(Cl)cc1Cl [tasisulam]	–	–	–	–	–	–	–	dose-dependent degradation	> 10	–	significant loss in affinity for DCAF15	3.5

Source: patent US12428459B2, “Protein tag to induce ligand dependent degradation of protein/protein-fusions” (DANA-FARBER CANCER INSTITUTE, INC., priority 2019, dated 2025)
